Source: US12247004B2, “2-amino-N-(amino-oxo-aryl-lambda6-sulfanylidene)acetamide compounds and their therapeutic use” (Oxford Drug Design Limited, priority 2019, dated 2025)
pIC50: −log10 of the molar value. Where two headings read alike, the source gives them in different places.

Experiments:
HepG2 ATCC HB-8065 cells = assay: Human cell viability / cytotoxicity (CellTiter-Glo, 24 hours); format: cell-based; details: HepG2 ATCC HB-8065, 24 hours
Summary of the method: (§1)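 HepG2 cells (15,000/well, MEM with 1% NEAA and 1% pyruvate) were grown 2 days, then exposed to compounds in duplicate for 24 h at 1.28% DMSO. Viability was read as ATP by CellTiter-Glo luminescence relative to DMSO-only wells. IC50 is in μg/mL.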

[1] = biological target: Leucyl-tRNA synthetase (LeuRS) (Escherichia coli (strain K12), UniProt P07813); assay: Leucyl-tRNA synthetase enzyme inhibition (AMP-Glo; single point % inhibition at 100 μM and IC50); format: biochemical; details: E. coli LeuRS; read-out: Enzyme Inhibition - IC50, E. coli LeuRS
[2] = Human cell viability / cytotoxicity (CellTiter-Glo, 24 hours); format: cell-based; details: human, HepG2 cells (ATCC HB-8065); HepG2 ATCC HB-8065, 24 hours; read-out: Cytotoxicity in HepG2 ATCC HB-8065 Cell Line, IC50
Summary of the method: as §1

[3] = biological target: Valyl-tRNA synthetase (ValRS) (Escherichia coli (strain K12), UniProt P07118); assay: Valyl-tRNA synthetase enzyme inhibition (AMP-Glo; single point % inhibition at 100 μM and IC50); format: biochemical
Source text: (§2) Study 1—Enzyme Inhibition
(§3) The aminoacylation reaction catalyzed by aminoacyl-tRNA synthetases (aaRS) takes place in two steps. In the first step, aaRS activates its cognate amino acid with ATP; and in the second step the activated amino acid is loaded to its corresponding tRNA. This reaction can be summarized as follows: aaRS+aa+ATP=aaRS-aa-AMP+PPi aaRS-aa-AMP+tRNA=aa-tRNA+AMP+aaRS
(§4) wherein: aaRS, aminoacyl-tRNA synthetase; aa, amino acid; aaRS-aa-AMP, enzyme-bound to aminoacyl-adenylate; AMP, adenosine monophosphate; aa-tRNA, aminoacyl-tRNA, PPi, inorganic pyrophosphate.
a. Single Point Percentage Inhibition
(§5) The activity of the pathogenic aaRSs was monitored by measuring AMP production using the commercial kit AMP-Glo (Promega, Madison, USA).
Ligand stock solutions were prepared in 100% DMSO at 10 mM concentration. An assay buffer consisting of 100 mM Tris HCl pH 7.6, 40 mM MgCl, 20 mM KCl and 150 mM NaCl was prepared in dH2O. An enzyme solution containing 42.33 μM ValRS was prepared in assay buffer to provide 30 nM final assay concentration and 75 nM reservoir concentration for a 1:2.5 dilution in the assay. A substrate solution was also prepared in assay buffer with 50 mM L-valine, 10 mM ATP and 100 mg/mL tRNA. A final assay concentration of 500 μM L-valine, 2.5 μM ATP and 0.5 mg/mL tRNA and reservoir concentration of 833.33 μM L-valine, […] and 0.83 mg/mL tRNA was used for a 1:1.66 dilution in assay.
(§6) Enzyme percentage inhibition values were recorded in triplicate at a single point concentration of 100 μM.
(§7) Using the same enzymatic assay in a 384-well plate format, ten point concentration response curves were generated for each compound using a top concentration of 100 μM. The known inhibitor, ValAMS was used as a positive control for the ValRS assay. 100% DMSO was used as a negative control. The IC50 was calculated based on non-linear regression analysis.

[4] = biological target: Isoleucyl-tRNA synthetase (IleRS) (Escherichia coli (strain K12), UniProt P00956); assay: Isoleucyl-tRNA synthetase enzyme inhibition (AMP-Glo; single point % inhibition at 100 μM and IC50); format: biochemical
Source text: as §2
as §3, with “aaRS-aa-AMP+tRNA=aa-tRNA+AMP+aaRS […]” for “aaRS-aa-AMP+tRNA=aa-tRNA+AMP+aaRS”
as §4
Isoleucyl-tRNA Synthetase a. Single Point Percentage Inhibition
as §5
Ligand stock solutions were prepared in 100% DMSO at 10 mM concentration. An assay buffer consisting of 100 mM Tris HCl pH 7.6, 40 mM MgCl, 20 mM KCl and 150 mM NaCl was prepared in dH2O. An enzyme solution containing 51.77 μM IleRS was prepared in assay buffer to provide 30 nM final assay concentration and 75 nM reservoir concentration for a 1:2.5 dilution in the assay. A substrate solution was also prepared in assay buffer with 50 mM L-isoleucine, 10 mM ATP and 100 mg/mL tRNA. A final assay concentration of 500 μM L-isoleucine, 5 μM ATP and 1 mg/mL tRNA and reservoir concentration of 833.33 μM L-isoleucine, 8.33 μM ATP and 1.67 mg/mL tRNA was used for a 1:1.66 dilution in assay.
as §6
as §7, with “IleAMS” for “ValAMS”, “IleRS” for “ValRS”

Sequence of Valyl-tRNA synthetase (ValRS) (P07118 whole entry): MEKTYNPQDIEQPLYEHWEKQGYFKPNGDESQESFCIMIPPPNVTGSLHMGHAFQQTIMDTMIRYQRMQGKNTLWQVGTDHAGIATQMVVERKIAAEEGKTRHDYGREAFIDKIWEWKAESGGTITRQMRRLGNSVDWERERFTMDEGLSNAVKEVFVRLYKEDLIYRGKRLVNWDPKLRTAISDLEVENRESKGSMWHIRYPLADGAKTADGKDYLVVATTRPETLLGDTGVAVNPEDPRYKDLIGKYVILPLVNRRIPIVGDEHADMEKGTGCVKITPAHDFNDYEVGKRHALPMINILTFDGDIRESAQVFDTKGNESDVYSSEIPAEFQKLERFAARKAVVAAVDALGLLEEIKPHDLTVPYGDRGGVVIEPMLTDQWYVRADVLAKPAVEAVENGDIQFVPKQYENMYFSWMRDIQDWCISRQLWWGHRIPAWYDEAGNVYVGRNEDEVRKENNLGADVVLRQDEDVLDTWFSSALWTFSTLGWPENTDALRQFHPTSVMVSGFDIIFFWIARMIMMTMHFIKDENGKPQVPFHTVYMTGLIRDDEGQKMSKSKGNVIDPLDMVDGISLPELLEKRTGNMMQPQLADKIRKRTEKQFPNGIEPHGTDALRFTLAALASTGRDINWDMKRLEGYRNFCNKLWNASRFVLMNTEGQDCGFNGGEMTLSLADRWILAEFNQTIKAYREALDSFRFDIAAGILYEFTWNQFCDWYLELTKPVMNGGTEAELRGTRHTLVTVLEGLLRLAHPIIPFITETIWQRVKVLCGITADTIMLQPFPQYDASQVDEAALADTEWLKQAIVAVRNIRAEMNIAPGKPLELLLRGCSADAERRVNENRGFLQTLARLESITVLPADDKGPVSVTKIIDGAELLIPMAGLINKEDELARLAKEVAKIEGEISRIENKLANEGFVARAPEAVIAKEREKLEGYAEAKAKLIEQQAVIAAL
Sequence of Isoleucyl-tRNA synthetase (IleRS) (P00956 whole entry, looked up): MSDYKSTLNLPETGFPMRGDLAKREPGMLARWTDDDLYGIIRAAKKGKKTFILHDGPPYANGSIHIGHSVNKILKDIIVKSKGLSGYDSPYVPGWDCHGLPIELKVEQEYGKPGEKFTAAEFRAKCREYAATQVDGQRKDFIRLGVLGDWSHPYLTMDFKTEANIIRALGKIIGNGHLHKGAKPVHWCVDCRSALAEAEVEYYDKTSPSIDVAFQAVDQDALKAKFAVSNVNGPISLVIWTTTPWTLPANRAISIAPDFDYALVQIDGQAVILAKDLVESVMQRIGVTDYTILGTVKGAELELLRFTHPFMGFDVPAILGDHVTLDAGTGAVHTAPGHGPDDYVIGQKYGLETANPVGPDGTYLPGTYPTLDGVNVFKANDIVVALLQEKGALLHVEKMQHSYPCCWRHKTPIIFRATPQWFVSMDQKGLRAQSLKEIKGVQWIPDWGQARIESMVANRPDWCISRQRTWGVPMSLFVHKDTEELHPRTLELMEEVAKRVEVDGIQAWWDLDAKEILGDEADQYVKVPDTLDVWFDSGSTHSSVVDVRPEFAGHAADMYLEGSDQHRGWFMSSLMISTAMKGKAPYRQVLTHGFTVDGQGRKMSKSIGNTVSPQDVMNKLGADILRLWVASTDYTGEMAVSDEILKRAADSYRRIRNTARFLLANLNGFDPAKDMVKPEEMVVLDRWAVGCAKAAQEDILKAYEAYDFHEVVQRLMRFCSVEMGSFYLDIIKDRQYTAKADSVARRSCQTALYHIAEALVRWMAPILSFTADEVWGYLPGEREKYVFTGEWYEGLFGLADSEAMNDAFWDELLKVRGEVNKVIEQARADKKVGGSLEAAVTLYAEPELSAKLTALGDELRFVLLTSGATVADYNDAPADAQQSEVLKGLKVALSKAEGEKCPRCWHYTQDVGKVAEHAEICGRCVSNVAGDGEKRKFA
Sequence of Leucyl-tRNA synthetase (LeuRS) (P07813 whole entry, looked up): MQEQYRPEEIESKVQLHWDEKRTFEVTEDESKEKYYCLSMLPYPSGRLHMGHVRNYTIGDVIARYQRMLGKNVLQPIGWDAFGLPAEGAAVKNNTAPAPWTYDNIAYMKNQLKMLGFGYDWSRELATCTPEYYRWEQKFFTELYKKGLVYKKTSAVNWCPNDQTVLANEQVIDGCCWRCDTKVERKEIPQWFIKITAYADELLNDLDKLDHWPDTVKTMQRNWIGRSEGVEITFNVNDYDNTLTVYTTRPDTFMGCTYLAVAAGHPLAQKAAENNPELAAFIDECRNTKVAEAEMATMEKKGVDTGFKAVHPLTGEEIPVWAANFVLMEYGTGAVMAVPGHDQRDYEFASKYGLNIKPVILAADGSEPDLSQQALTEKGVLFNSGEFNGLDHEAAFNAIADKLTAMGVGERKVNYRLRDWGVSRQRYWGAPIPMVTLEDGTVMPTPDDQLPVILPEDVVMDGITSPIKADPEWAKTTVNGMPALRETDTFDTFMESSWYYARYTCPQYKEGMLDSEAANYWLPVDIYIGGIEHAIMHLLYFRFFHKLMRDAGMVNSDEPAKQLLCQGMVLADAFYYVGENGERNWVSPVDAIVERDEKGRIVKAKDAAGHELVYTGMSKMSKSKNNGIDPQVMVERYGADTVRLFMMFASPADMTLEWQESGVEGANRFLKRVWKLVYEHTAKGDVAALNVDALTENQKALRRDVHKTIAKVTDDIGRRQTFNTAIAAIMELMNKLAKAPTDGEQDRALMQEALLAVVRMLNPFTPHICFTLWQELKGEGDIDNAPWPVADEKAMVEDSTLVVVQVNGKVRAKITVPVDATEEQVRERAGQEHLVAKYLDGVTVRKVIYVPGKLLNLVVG

**Q.** With `CC(C)C[C@H](N)C(=O)N=[S@@](N)(=O)c1cccs1.Cl` [ANASIA-007-2, (S)-2-amino-N—((R)-amino(oxo) (thiophen-2-yl)-λ6-sulfanylidene)-4-methyl pentanamide hydrochloride] as the molecule, how does the “Cytotoxicity in HepG2 ATCC HB-8065 Cell Line, IC50” value (HepG2 ATCC HB-8065 cells) read?
**A.** Its value is greater than 64.0 µg/mL.

**Q.** What about the pIC50 [1] of the same molecule?
**A.** Its pIC50 is 5.31.

**Q.** With `CC(C)[C@H](N)C(=O)N=S(N)(=O)c1cccc2ccccc12` (some centres unmarked) [ANASIA-025] as the molecule, how does the IC50 at 24 h [2] read?
**A.** Its IC50 at 24 h is greater than 64 µg/mL.

**Q.** What about the pIC50 [3] of the same molecule?
**A.** Its pIC50 is 4.66.

**Q.** And the pIC50 ([4]; E. coli IleRS, read-out: Enzyme Inhibition - IC50, E. coli IleRS)?
**A.** Its pIC50 is less than 4.00.

**Q.** With `CC(C)[C@H](N)C(=O)N=[S@](N)(=O)c1cccc(OC(F)F)c1` [ANASIA-117-1] as the molecule, how does the pIC50 ([3]; E. coli ValRS, read-out: Enzyme Inhibition - IC50, E. coli ValRS) read?
**A.** Its pIC50 is 4.32.

**Q.** Which results are given for `CC(C)[C@H](N)C(=O)N=S(N)(=O)c1cc2sccc2s1` (some centres unmarked) [ANASIA-118]?
**A.** pIC50 [3]: 4.41; pIC50 [4]: 4.28
